# Test results as given in BindingDB's records for doi:10.1021/jm049496b (University of Colorado, 2004).
# Experiments:
# [1] = biological target: T1, 7-dehydrocholesterol reductase (Homo sapiens, UniProt Q9UBM7); test: Growth inhibition of MDA-MB-435 cells containing antiestrogen binding sites
# T1 sequence (Q9UBM7 whole entry): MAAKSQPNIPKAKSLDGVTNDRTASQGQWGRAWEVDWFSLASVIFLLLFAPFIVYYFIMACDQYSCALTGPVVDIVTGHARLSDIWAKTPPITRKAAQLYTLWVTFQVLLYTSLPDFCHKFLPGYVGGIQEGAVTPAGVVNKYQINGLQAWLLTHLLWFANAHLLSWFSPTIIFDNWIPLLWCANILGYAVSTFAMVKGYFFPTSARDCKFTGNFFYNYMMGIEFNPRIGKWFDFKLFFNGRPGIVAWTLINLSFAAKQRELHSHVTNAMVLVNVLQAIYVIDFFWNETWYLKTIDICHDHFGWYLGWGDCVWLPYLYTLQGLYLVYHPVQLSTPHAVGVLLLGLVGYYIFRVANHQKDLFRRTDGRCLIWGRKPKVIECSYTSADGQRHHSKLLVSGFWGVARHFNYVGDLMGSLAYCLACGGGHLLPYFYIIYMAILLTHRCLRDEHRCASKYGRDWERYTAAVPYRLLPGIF
# [2] = biological target: T1, 7-dehydrocholesterol reductase; test: Growth inhibition of MDA-MB-231 cells containing antiestrogen binding sites
# [3] = biological target: T1, 7-dehydrocholesterol reductase; test: Growth inhibition of multidrug resistant MCF7/Adr cells containing antiestrogen binding sites
# [4] = biological target: T1, 7-dehydrocholesterol reductase; test: Growth inhibition of MCF7 cells expressing ER and antiestrogen binding sites
IC50 [1],IC50 [2],IC50 [3],IC50 [4],Structure (SMILES)
50 nM,80 nM,2000 nM,70 nM,COc1cccc2c1C(=O)c1c(O)c3c(c(O)c1C2=O)C[C@@](O)(C(=O)CO)C[C@@H]3O[C@H]1C[C@H](NCNC(=O)c2ccccc2O)[C@H](O)[C@H](C)O1
40 nM,30 nM,60 nM,30 nM,CC/C(=C(/c1ccc(O)cc1)c1ccc(OCCN(C)CCOCCOCCO/N=C/c2ccc(O)c(C(=O)NCN[C@H]3C[C@H](O[C@H]4C[C@](O)(C(=O)CO)Cc5c(O)c6c(c(O)c54)C(=O)c4c(OC)cccc4C6=O)O[C@@H](C)[C@H]3O)c2)cc1)c1ccccc1
